Experimental data reported in US6827926B2, “Metallotetrapyrrolic photosensitizing agents for use in photodynamic therapy” (Miravant Pharmaceuticals, Inc., priority 2001, dated 2004).
Where two headings read alike, the source gives them in different places.

Tests used:
[1] = test system: normal uninjured rat carotid arteries (medial and adventitial cell populations); assay: In vivo rat carotid artery acellularity after PDT; parameters: species or system Sprague Dawley rats; settings: for efficacy of free base porphyrins in the arterial rat model: at the time point, drug and light dose parameters used; for Max % rat Artery Accelularity: Table 3, 50 J/cm^2, 3 days post treatment
Procedure: The acute effects of metallated photosensitizers, in response to light activation, to cause depletion of cell populations in the medial and adventitial layers of vessels was measured in normal uninjured rat carotid arteries. […] Shortly before the light treatment, the rats were anaesthetized with 3.5% isoflurane (Abbott Laboratories, IL, USA) and the femoral region of the right leg was shaved and cleaned. […] A direct arteriotomy was performed and a light balloon catheter ([…] Medical Technologies, Inc) was introduced into the vessel and advanced retrogradely into a non-manipulated region of the left common carotid artery via the abdominal aorta. […] After light treatment and removal of the catheter, the right femoral artery was tied off and the skin wound was closed. Rats were sacrificed three days post treatment as this corresponds to the known peak time that vascular cells, e.g., VSMC and myofibroblasts, proliferate and migrate in response to an injury. The area spanning both left and right carotid arteries and surrounding tissue was harvested, fixed, embedded in paraffin and sectioned. The tissues were stained with Hematoxylin and Eosin (Fisher Scientific, PA) and examined by light microscopy to histologically assess the cell population density in the medial and adventitial layers of the PDT-treated vessel wall. […] Metallo azaporphyrins with Ga, Zn, Al, Sn were excited at 575 nm, while Pt azaporphyrins were excited at 532 nm.

[2] = test system: normal skin of CD Hairless male rats; assay type: in vivo, rat; settings: rat, in vivo
From the text: We tested metallo- and metal-free tetrapyrroles systemically (see following section) for normal skin response in relation to the pharmacodynamic distribution of the photosensitizers in CD hairless rats. The skin of CD hairless rats are poorly developed, often referred to as hyperkeratotic, with various sized cystic hair follicles containing concentric lamellar accumulations of keratinaceous material, which are often associated with enlarged sebaceous glands. It quickly became apparent that gallium tetrapyrroles induced a marked clearing of the hyperkeratotic lesions in the treatment areas on the hairless rats. In fact, this clearing could be induced without necrosis of the skin. No other metallotetrapyrrole type produced such effects. This observation led us to assess the metallotetrapyrrolic compounds for skin restructuring effects both topically and systemically and for their ability to reduce hair growth in the following animal models.
Photosensitizer normal skin response as well as skin healing response, was evaluated using CD Hairless male rats. Photosensitizers were administered in an liposomal egg yolk phospholipid formulation at 1, 1.5 and 2 μmol/kg body weight formulation per dose group as a single bolus intravenous injection given through a marginal tail vein using a 27 gauge needle and a 1 cc tuberculin syringe. Normal skin responses were evaluated by irradiating several spots on the skin of the rat with a 532 nm laser (150 mW/cm^2, 150J, 1 cm diameter) at 1, 6, 24, 48, and 96 hrs post injection. Normal skin responses were evaluated and documented. The time at which the last spot is observed at the concentration injected is reported in the far right hand column in Tables 3, 4, 5 and 6. Skin samples were taken for histological evaluation at days 1, 10, 20 and 22 post light treatment. Rats were housed under normal lighting and all study procedures involving the test article were conducted under light filtered through blue and green Roscolox light filters to prevent photoactivation or degradation of the drug.

[3] = test system: V79 (Chinese Hamster Lung Fibroblasts) cells; assay: In vitro cytotoxicity assay (light EC50, Alamar blue); assay type: cell-based
Procedure: The in vitro biological evaluation of photosensitizers for their ability to photosensitize cells was performed using standard procedures. Using 5% FBS/DMEM phenol-free media, wells (180 μl/well) were plated with 5×10^4 V79 (Chinese Hamster Lung Fibroblasts) cells/ml into two 96 well plates. Plate 1 was light-treated and plate 2 served as a control. The plates were Incubated at 37° C., 5% CO2 for 3-5 hours. Standard solutions of the photosensitizers were dissolved in pre-filtered Dimethyl Sulfoxide (DMSO). Drug was diluted in 5% FBS DMEM phenol free medium. Final drug concentrations for light and dark experiments were 0.01, 0.1, 1.0, 3.0 and 5.0 μM. Twenty microliters of each concentration were added to six replicate wells to the light and dark plate. The plates were wrapped in aluminum foil to avoid photoactivation and mixed in a gyratory shaker for approximately 2 minutes. Both plates were incubated for 24 hours at 37° C., 5% CO2. After a 24 hour incubation, drug-containing media was aspirated from the plates. Each well was rinsed with 180 μl Hepes buffer salt solution (HBSS) then aspirated to remove the HBSS. 180 μl of fresh media were added (5% FBS/DMEM phenol-free) to each well. […] Plate 2 was not light treated. Immediately after light treatment, 20 μl Alamar blue was added to each well in plate 1. Alamar blue was added to plate 2 immediately after fresh media was added. The plates were mixed on a gyratory shaker for 5 min.
Both plates were incubated under dark conditions for 24 hours at 37° C., 5% CO2. After 24 hour incubation, the plates were read on a plate reader spectrophotometer (Spectra Max 250) at wavelengths 570 and 600 nm. and the percentage of cell survival recorded.

[4] = Table 3 porphyrins, 24 h drug incubation, 532 nm, 1.25 J/cm^2, read-out: In Vitro EC50 Light
[5] = Table 4 azaporphyrins, 575 nm (Pt azaporphyrins 532 nm), 1.25 J/cm^2, read-out: In Vitro EC(50)

Compound | EC50 [3, 4] | Max % rat Artery Accelularity ([1]; drug dose 1 μMol) | other results
CCC1=C(C)c2cc3[nH]c(cc4nc(cc5[nH]c(cc1n2)c(C)c5CCC(=O)OC)C(CCC(=O)OC)=C4C)c(C)c3CC [mesoporphyrin dimethyl ester, reference compound] |  |  | efficacy of free base porphyrins in the arterial rat model [1]: poor efficacy
Platinum Mesoporphyrin di(2-ethoxyethanolamide) [Example 69] | 0.5 µM |  | Normal skin Response (1 μmol) in hrs [2]: None
Aluminum Chloride 8,13-diethyl-3,7,12,17-tetramethylporphyrin-2,18-di(butanoic acid methyl ester) [Example 48] | 4 µM | 0% | 
CCC1=C(C)C2=[N+]3C1=Cc1c(C)c(CC)c4[n]1[Zn-2]31[n]3c(c(C)c(CCC(=O)NCCCN5CCOCC5)c3=CC3=[N+]1C(=C4)C(C)=C3CCC(=O)NCCCN1CCOCC1)=C2 (stereo not drawn) [Example 63, Zinc Mesoporphyrin 3-(N-morpholino)propylamide] | 0.025 µM |  | Normal skin Response (1 μmol) in hrs [2]: None
CCC1=C(CC)C2=[N+]3C1=Nc1c(CC)c(CC)c4[n]1[Pt-2]31[n]3c(c(C)c(CCC(=O)[O-])c3=CC3=[N+]1C(=C4)C(C)=C3CCC(=O)[O-])=C2.[K+].[K+] (stereo not drawn) [Example 86, Platinum 7,8,12,13-tetraethyl-12,17-dimethyl-10-azaporphyrin-2,18-di(propionic acid Potassium Salt)] |  |  | Normal skin Response (1 μmol) [2]: 96 h
CCOC(=O)CCCCC1=C(C)c2cc3[nH]c(cc4nc(cc5[nH]c(cc1n2)c(CCCCC(=O)OCC)c5C)C(C)=C4CC)c(C)c3CC.[Pt] [Example 53, Platinum 8,13-diethyl-3,7,12,17-tetramethylporphyrin-2,18-di(pentanoic acid ethyl ester)] | 0.1 µM | 20% | 
CCOC(=O)CCCCC1=C(C)c2cc3[nH]c(cc4nc(cc5[nH]c(cc1n2)c(CCCCC(=O)OCC)c5C)C(CC)=C4C)c(CC)c3C [metal-free analog of compound 28, 8,13-diethyl-3,7,12,17-tetramethylporphyrin-2,18-di(pentanoic acid ethyl ester)] |  |  | efficacy of free base porphyrins in the arterial rat model [1]: poor efficacy
Zinc 8,13-diethyl-3,7,12,17-tetramethylporphyrin-2,18-di(butanoic acid methyl ester) [Example 49] | 4 µM | 0% | 
CCC1=C(C)C2=Cc3c(CC)c(C)c4[n]3[Pt][n]3c(c(C)c(CCC(=O)[O-])c3=CC3=NC(=C4)C(C)=C3CCC(=O)[O-])=CC1=N2.[Na+].[Na+] [Example 111, Platinum Mesoporphyrin Disodium Salt] | 0.7 µM | 0% | 
Gallium Chloride 8,13-diethyl-3,7,12,17-tetramethylporphyrin-2,18-di(butanoic acid methyl ester) [Example 26] | 0.37 µM | 75% | 
C=CC1=C(C)c2cc3[n-]c(cc4nc(cc5[n-]c(cc1n2)c(C)c5CCC(=O)[O-])C(CCC(=O)[O-])=C4C)c(C)c3C=C.[In+3].[Na+].[Na+].[OH-] [Example 112, Indium Hydroxy Protoporphyrin Disodium Salt] | 1.5 µM | 0% | 
CCC1=C(C)c2cc3[nH]c(cc4nc(cc5[nH]c(cc1n2)c(C)c5CC)C(C)=C4CCCC(=O)OC)c(CCCC(=O)OC)c3C [metal-free analog of compound 26, 8,13-diethyl-3,7,12,17-tetramethylporphyrin-2,18-di(butanoic acid methyl ester)] |  |  | efficacy of free base porphyrins in the arterial rat model [1]: poor efficacy
CCC1=C(C)c2cc3[n-]c(cc4nc(cc5[n-]c(cc1n2)c(C)c5CC)C(C)=C4CCC(=O)[O-])c(CCC(=O)[O-])c3C.[In+3].[Na+].[Na+].[OH-] [Example 110, Indium Hydroxy Mesoporphyrin Disodium Salt] | 1 µM | 0% | 
CCC1=C(CC)C2=[N+]3C1=Nc1c(CC)c(CC)c4[n]1[Pt-2]31[n]3c(c(C)c(CCC(=O)OC)c3=CC3=[N+]1C(=C4)C(C)=C3CCC(=O)OC)=C2 (stereo not drawn) [Example 85, Platinum 7,8,12,13-tetraethyl-12,17-dimethyl-10-azaporphyrin-2,18-di(propionic acid methyl ester)] |  |  | EC50 [3, 5]: 4 µM
Gallium Chloride 7,8,12,13-tetraethyl-12,17-dimethyl-10-azaporphyrin-2,18-di(3′-hydroxypropyl) [Example 23] |  |  | EC50 [3, 5]: 0.05 µM; Max % Rat Artery Accelularity ([1]; Table 4, drug dose 1 μMol, 575 nm (Pt 532 nm)): 50%
CC1=C(CCC(=O)[O-])c2cc3[n-]c(cc4nc(cc5[n-]c(cc1n2)c(CCC(=O)[O-])c5C)C(C)=C4CCC(=O)[O-])c(CCC(=O)[O-])c3C.[In+3].[Na+].[Na+].[Na+].[Na+].[OH-] [Example 113, Indium Hydroxy Coproporphyrin III Tetra Sodium Salt] | 3.6 µM | 0% | 
CCC1=C(CC)C2=Nc3c(CC)c(CC)c4[n]3[Ga]([Cl])[n]3c(c(C)c(CCC(=O)NCCOC)c3=CC3=NC(=C4)C(C)=C3CCC(=O)NCCOC)=CC1=N2 [Example 95, Gallium Chloride 7,8,12,13-tetraethyl-12,17-dimethyl-10-azaporphyrin-2,18-di(propionic acid 2′-methoxyethyl amide)] |  |  | EC50 [3, 5]: 2 µM
CCC1=C(CC)C2=[N+]3C1=Nc1c(CC)c(CC)c4[n]1[Pt-2]31[n]3c(c(C)c(CCC(=O)O)c3=CC3=[N+]1C(=C4)C(C)=C3CCC(=O)O)=C2.[K+].[K+] (stereo not drawn) [Example 86, Platinum 7,8,12,13-tetraethyl-12,17-dimethyl-10-azaporphyrin-2,18-di(propionic acid Potassium Salt)] |  |  | EC50 [3, 5]: 0.4 µM
CCC1=C(C)c2cc3[n-]c(cc4nc(cc5[n-]c(cc1n2)c(C)c5CC)C(C)=C4CCCN(CC)CC)c(CCCN(CC)CC)c3C.[Zn+2] [Example 79, Zinc 8,13-diethyl-3,7,12,17 tetramethylporphyrin-2,18-di((N,N-diethyl)-3-aminopropyl)] |  |  | Normal skin Response (1 μmol) in hrs [2]: None
CCC1=C(CC)C2=Nc3c(CC)c(CC)c4[n]3[In]([Cl])[n]3c(c(C)c(CCCO)c3=CC3=NC(=C4)C(C)=C3CCCO)=CC1=N2 [Example 104, Indium Chloride 7,8,12,13-tetraethyl-12,17-dimethyl-10-azaporphyrin-2,18-di(3′-hyroxypropyl)] |  |  | EC50 [3, 5]: 0.03 µM
CCC1=C(C)C2=[N+]3C1=Cc1c(C)c(CC)c4[n]1[Al-2]31([Cl])[n]3c(c(C)c(CCCO)c3=CC3=[N+]1C(=C4)C(C)=C3CCCO)=C2 [Example 73, Aluminum Chloride 8,13-diethyl-3,7,12,17-tetramethylporphyrin-2,18-di(3′-hydroxypropyl)] | 3.6 µM | 0% | 
